Assay results reported in the NIST ThermoML archive (doi:10.1021/acs.jced.5b00599).
± gives the expanded uncertainty stated by the source.

Details: Gas, Oscillating disk viscometry

O [water]
Details	viscosity [mPa·s]
297.33 K, Mass density=0.092 kg/m3	0.00963 ± 0.00038
297.76 K, Mass density=0.023 kg/m3	0.009649 ± 0.00038
298.16 K, Mass density=0.092 kg/m3	0.009654 ± 0.00038
298.69 K, Mass density=0.129 kg/m3	0.009676 ± 0.00038
298.99 K, Mass density=0.129 kg/m3	0.009697 ± 0.00038
299.38 K, Mass density=0.018 kg/m3	0.009722 ± 0.00038
300.35 K, Mass density=0.018 kg/m3	0.009746 ± 0.00038
301.55 K, Mass density=0.023 kg/m3	0.009792 ± 0.00038
310.44 K, Mass density=0.129 kg/m3	0.01008 ± 0.00039
311.12 K, Mass density=0.023 kg/m3	0.01011 ± 0.00039
311.13 K, Mass density=0.092 kg/m3	0.0101 ± 0.00039
311.52 K, Mass density=0.018 kg/m3	0.01013 ± 0.00039
325.16 K, Mass density=0.092 kg/m3	0.01059 ± 0.0004
325.62 K, Mass density=0.023 kg/m3	0.01063 ± 0.0004
326.81 K, Mass density=0.129 kg/m3	0.01064 ± 0.0004
327.19 K, Mass density=0.018 kg/m3	0.01067 ± 0.0004
338.27 K, Mass density=0.129 kg/m3	0.01104 ± 0.00041
338.47 K, Mass density=0.023 kg/m3	0.01107 ± 0.00041
339.05 K, Mass density=0.018 kg/m3	0.01109 ± 0.00041
339.49 K, Mass density=0.092 kg/m3	0.01109 ± 0.00041
352.03 K, Mass density=0.092 kg/m3	0.01154 ± 0.00042
352.69 K, Mass density=0.018 kg/m3	0.01158 ± 0.00042
352.79 K, Mass density=0.129 kg/m3	0.01156 ± 0.00042
352.84 K, Mass density=0.023 kg/m3	0.01158 ± 0.00042
365.89 K, Mass density=0.092 kg/m3	0.01204 ± 0.00044
366.46 K, Mass density=0.129 kg/m3	0.01205 ± 0.00044
366.97 K, Mass density=0.018 kg/m3	0.01208 ± 0.00044
367.44 K, Mass density=0.023 kg/m3	0.0121 ± 0.00044
380.14 K, Mass density=0.092 kg/m3	0.01257 ± 0.00045
380.24 K, Mass density=0.092 kg/m3	0.01257 ± 0.00045
380.61 K, Mass density=0.129 kg/m3	0.01257 ± 0.00045
380.86 K, Mass density=0.018 kg/m3	0.0126 ± 0.00045
380.91 K, Mass density=0.129 kg/m3	0.0126 ± 0.00045
381.03 K, Mass density=0.023 kg/m3	0.0126 ± 0.00045
382.98 K, Mass density=0.023 kg/m3	0.01267 ± 0.00045
384.22 K, Mass density=0.018 kg/m3	0.01273 ± 0.00045
394.56 K, Mass density=0.092 kg/m3	0.01311 ± 0.00046
394.75 K, Mass density=0.129 kg/m3	0.0131 ± 0.00046
394.87 K, Mass density=0.018 kg/m3	0.01313 ± 0.00046
395.16 K, Mass density=0.023 kg/m3	0.01312 ± 0.00046
408.37 K, Mass density=0.092 kg/m3	0.01363 ± 0.00047
408.69 K, Mass density=0.129 kg/m3	0.01365 ± 0.00047
409.25 K, Mass density=0.023 kg/m3	0.01365 ± 0.00047
410.22 K, Mass density=0.018 kg/m3	0.0137 ± 0.00047
422.63 K, Mass density=0.092 kg/m3	0.01418 ± 0.00049
423.17 K, Mass density=0.129 kg/m3	0.01421 ± 0.00049
423.35 K, Mass density=0.023 kg/m3	0.01419 ± 0.00049
423.87 K, Mass density=0.018 kg/m3	0.01423 ± 0.00049
437.65 K, Mass density=0.092 kg/m3	0.01479 ± 0.0005
437.93 K, Mass density=0.129 kg/m3	0.01479 ± 0.0005
438.48 K, Mass density=0.023 kg/m3	0.01478 ± 0.0005
438.75 K, Mass density=0.018 kg/m3	0.01482 ± 0.0005
466.44 K, Mass density=0.092 kg/m3	0.01596 ± 0.00058
466.96 K, Mass density=0.129 kg/m3	0.01598 ± 0.00058
468.21 K, Mass density=0.018 kg/m3	0.01601 ± 0.00058
468.74 K, Mass density=0.023 kg/m3	0.01598 ± 0.00058
496.27 K, Mass density=0.023 kg/m3	0.0171 ± 0.00061
496.94 K, Mass density=0.092 kg/m3	0.01723 ± 0.00061
497.01 K, Mass density=0.129 kg/m3	0.01727 ± 0.00061
497.08 K, Mass density=0.018 kg/m3	0.01723 ± 0.00061
